Measurements reported in publication PMC6015749 (Neurotoxicology, 2018).
Several values for one entry are separate records, joined by “and”; a condition that tells them apart may be missing. Identical values can stand only once. Entries after “also recorded” stand apart in the source; their conditions may differ. Like-named read-outs stand apart in the source and are kept apart here.

Key:
[1] = system: dopaminergic (TH+, MAP2+) neurons in primary midbrain cultures; type: cell-based, rat; details: for mean % dopaminergic neurons ± S.E.M: n = 6; for Selective loss of dopaminergic neurons / DA neuron loss at 1 µM: vs. control; for percentage of dopaminergic neurons (mean ± SEM), time course: n = 4, control 6.30 ± 0.58
[2] = system: dopaminergic (TH+) neurites in primary midbrain cultures; experiment: Neurite length quantification of dopaminergic; type: cell-based, rat; details: for Change in dopaminergic (TH+) neurite length / Dopaminergic (TH+) neurite length (mean ± SEM) / Decrease in dopaminergic (TH+) neurite length / Concentration at which decreased dopaminergic (TH+) neurite length was detected: 24 h; for Decrease in dopaminergic (TH+) neurite length: vs. control; for Change in dopaminergic (TH+) neurite length, time course: 24 – 72 h; for Concentration at which decreased dopaminergic (TH+) neurite length was detected: doses 100 nM – 5 µM
[3] = system: non-dopaminergic (TH-, MAP2+) neurons in primary midbrain cultures; experiment: Raw non-dopaminergic; type: cell-based, rat; details: 1 µM, 24 – 72 h, all time-points
[4] = system: total neurons (MAP2+) in primary midbrain cultures; experiment: Neurite length quantification, pan-neuronal; type: cell-based, rat; details: 1 µM, 24 – 72 h, all time-points
[5] = system: dopaminergic (TH+, MAP2+) neurons in primary midbrain cultures; experiment: 3-Nitrotyrosine; details: 1 µM; for NT fluorescence intensity normalized to mean control value ± SEM, dopaminergic neurons: control 100 ± 9.1
[6] = system: non-dopaminergic (TH-, MAP2+) neurons in primary midbrain cultures; experiment: 3-Nitrotyrosine; details: 1 µM; control 100 ± 21.61
[7] = ref PubChem Compound Database; cited from earlier work

Compound	DA neuron loss at 1 µM ([1]; 1 µM, 24 h)	mean % dopaminergic neurons ± S.E.M ([1]; 1 µM, 24 h) [%]	percentage of dopaminergic neurons (mean ± SEM), time course ([1]; 1 µM, 24 h) [%]	percentage of dopaminergic neurons (mean ± SEM), time course ([1]; 1 µM, 48 h) [%]	percentage of dopaminergic neurons (mean ± SEM), time course ([1]; 1 µM, 72 h) [%]	Effect on non-dopaminergic (MAP2+/TH-) cell counts, time course [3]	Change in dopaminergic (TH+) neurite length, time course ([2]; 1 µM)	Effect on non-dopaminergic neurites, time course [4]	Dopaminergic (TH+) neurite length (mean ± SEM) ([2]; 1 µM) [µm]	Decrease in dopaminergic (TH+) neurite length ([2]; 1 µM) [%]	further results
Cc1cnc2cc(C)c3c(nc(N)n3C)c2n1 [4,8-DiMeIQx, 2-amino-3,4,8-trimethylimidazo[4,5-f]quinoxaline]	26%	–	–	–	–	–	–	–	–	–	mean % dopaminergic neurons ± S.E.M ([1]; 100 nM, 24 h): 4.663 ± 0.3194%; Selective loss of dopaminergic neurons ([1]; 100 nM, 24 h): 20%; Change in dopaminergic (TH+) neurite length ([2]; all tested doses 100 nM – 5 µM): no significant alteration; also recorded: did not have an effect
Nc1ccc2c(n1)[nH]c1ccccc12 [AαC, 2-amino-9H-pyrido[2,3-b]indole]	27%	3.932 ± 0.4382	–	–	–	–	–	–	–	–	Dopaminergic (TH+) neurite length (mean ± SEM) ([2]; 100 nM): 62.93 ± 1.743 µm; Decrease in dopaminergic (TH+) neurite length ([2]; 100 nM): 11%
Cc1nccc2c1[nH]c1ccccc12 [Harmane, 1-methyl-9H-pyrido[3,4-b]indole]	21%	–	6.04 ± 0.72	4.80 ± 0.90	3.47 ± 0.53	not affected	Decreased	not affected	–	–	Threshold for detectable selective DA neurotoxicity [1]: 200 nM; mean % dopaminergic neurons ± S.E.M ([1]; 200 nM, 24 h): 4.677 ± 0.2123%; Selective loss of dopaminergic neurons ([1]; 200 nM, 24 h): 15%; Dopaminergic (TH+) neurite length (mean ± SEM) ([2]; 100 nM): 62.67 ± 1.713 µm; Decrease in dopaminergic (TH+) neurite length ([2]; 100 nM): 14%; Fold increase in NT immunofluorescence signal vs. control, dopaminergic neurons [5]: ~7 fold; NT fluorescence intensity normalized to mean control value ± SEM, dopaminergic neurons [5]: 731.3 ± 94.03; NT fluorescence intensity normalized to mean control value ± SEM, non-dopaminergic neurons [6]: 188.1 ± 23.92
Cn1c(N)nc2c3cccnc3ccc21 [IQ, 2-amino-3-methylimidazo[4,5-f]quinoline]	Not significant	–	–	–	–	–	–	–	–	–	mean % dopaminergic neurons ± S.E.M ([1]; 5 µM, 24 h): 4.338 ± 0.4525%; Selective loss of dopaminergic neurons ([1]; 5 µM, 24 h): 23%; Change in dopaminergic (TH+) neurite length ([2]; higher doses): not significant decreases; Change in dopaminergic (TH+) neurite length ([2]; low doses (100 and 200 nM)): significant increases
Cc1cc2ncccc2c2nc(N)n(C)c12 [MeIQ, 2-amino-3,4-dimethylimidazo[4,5-f]quinoline]	25%	–	5.51 ± 0.66	5.11 ± 0.66	3.90 ± 0.81	not affected	Decreased	not affected	63.58 ± 1.584	10	mean % dopaminergic neurons ± S.E.M ([1]; 200 nM, 24 h): 4.372 ± 0.3579%; Selective loss of dopaminergic neurons ([1]; 200 nM, 24 h): 23%; Fold increase in NT immunofluorescence signal vs. control, dopaminergic neurons [5]: > 5 fold and ~4 fold; NT fluorescence intensity normalized to mean control value ± SEM, dopaminergic neurons [5]: 362.9 ± 45.8; NT fluorescence intensity normalized to mean control value ± SEM, non-dopaminergic neurons [6]: 130.1 ± 14.91
Cc1cnc2ccc3c(nc(N)n3C)c2n1 [MeIQx, 2-amino-3,8-dimethylmidazo[4,5-f]quinoxaline]	17%	4.207 ± 0.3535	–	–	–	–	–	–	61.97 ± 1.94	12	Concentration at which decreased dopaminergic (TH+) neurite length was detected [2]: 1000 nM; Log P [7]: 1.0
c1ccc2c(c1)[nH]c1cnccc12 [Norharmane, 9H-Pyrido[3,4-B]indole]	20%	–	–	–	–	–	–	–	–	–	mean % dopaminergic neurons ± S.E.M ([1]; 100 nM, 24 h): 4.703 ± 0.3711%; Selective loss of dopaminergic neurons ([1]; 100 nM, 24 h): 18%; Dopaminergic (TH+) neurite length (mean ± SEM) ([2]; 500 nM): 63.15 ± 1.864 µm; Decrease in dopaminergic (TH+) neurite length ([2]; 500 nM): 11%; Concentration at which decreased dopaminergic (TH+) neurite length was detected [2]: 500 nM; Concentration at which decreased dopaminergic (TH+) neurite length was detected ([2]; listed as norharmane): ≥ 500 nM
Cn1c(N)nc2ncc(-c3ccccc3)cc21 [PhIP, 2-amino-1-methyl-6-phenylimidazo[4,5-b]pyridine]	19%	4.612 ± 0.3403	5.17 ± 0.95	4.60 ± 0.70	3.61 ± 0.45	not affected	Decreased	not affected	57.76 ± 1.656	15	–
